These results are taken from patent US20220249413A1, “SWELL 1 MODULATORS FOR TREATMENT OF NON-ALCOHOLIC FATTY LIVER DISEASE, IMMUNE DEFICIENCIES, MALE INFERTILITY AND VASCULAR DISEASES” (priority 2019, published 2022).

What all share (format): in vivo, mouse
Data set [1] is described as follows: Metabolic phenotyping: fasting glucose, GTT, ITT. From the text:
Patients Human islets and adipocytes were obtained and cultured as described previously (Zhang et al., Nat Cell Biol, 19, 504-517, 2017; Kang et al., Nature Communications, 9, 367, 2018). The Patients involved in the study were anonymous and information such as gender, age, HbA1c, glucose levels and BMI only were available to the research team. The study was approved and carried out as per the guidelines of the University of Iowa Institutional Review Board (IRB). Animals All experimental procedures involving mice were approved by the Institutional Animal Care and Use Committee of the University of Iowa and Washington University at St. Louis. All C57BL/6 mice involved in study were purchased from Charles River Labs. Both KK.Cg-Ay/J (KKA^y) and KK.Cg-Aa/J (KKA^a) mice involved in study were gender and age-matched mice obtained from Jackson Labs (Stock No: 002468) and bred up for experiments. The mice were fed ad libitum with either regular chow (RC) or high-fat diet (Research Diets, Inc., 60 kcal % fat) with free access to water and housed in a light-, temperature- and humidity-controlled room. For high-fat diet (HFD) studies, only male mice were used and were started on HFD regimen at the age of 6-9 weeks. For all experiments involving KKA^y and KKA^a mice, both males and females were used at approximately 50/50 ratio. In all experiments involving mice, investigators were kept blinded both during the experiments and subsequent analysis. Smod1 (DCPIB) treatment Smod1 (DCPIB, Tocris, #D1540), was dissolved in Kolliphor® EL (Sigma, #C5135). Either vehicle (Kolliphor® EL) or Smod1 (5 mg/kg of body weight/day) were injected (intraperitoneal, i.p.) using 1 cc syringe/26G/[…] needle daily for 4-10 days, and in one experiment, daily for 8 weeks. Adenovirus Adenovirus type 5 with Ad5-RIP2-GFP (4.1×10^10 PFU/ml) and Ad5-CAG-LoxP-stop-LoxP-3× Flag-SWELL1 (1×10^10 PFU/ml) were obtained from Vector Biolabs. Adenovirus type 5 with Ad5-CMV-Cre-wt-IRES-eGFP (8×10^10 PFU/ml) was obtained from the University of Iowa Viral Vector Core. Cell culture Wildtype (WT) and SWELL1 knockout (KO) 3T3-F442A (Sigma-Aldrich) cells were cultured and differentiated as described previously (Zhang et al., Nat Cell Biol, 19, 504-517, 2017). Preadipocytes were maintained in 90% DMEM (25 mM D-Glucose and 4 mM L-Glutamine) containing 10% fetal bovine serum (FBS) and 100 IU penicillin and 100 μg/ml streptomycin on collagen-coated (rat tail type-I collagen, Corning) plates. Upon reaching confluency, the cells were differentiated in the above-mentioned media supplemented with 5 μg/ml insulin (Cell Applications) and replenished every other day with the differentiation media. For insulin signaling studies on WT and KO adipocytes with or without SWELL1 overexpression (O/E), the cells were differentiated for 10 days and transduced with Ad5-CAG-LoxP-stop-LoxP-3× Flag-SWELL1 virus (MOI 12) on day 11 in 2% FBS containing differentiation medium. To induce the overexpression, Ad5-CMV-Cre-wt-IRES-eGFP (MOI 12) was added on day 13 in 2% FBS containing differentiation medium. The cells were then switched to 10% FBS containing differentiation medium from day 15 to 17. On day 18, the cells were starved in serum free media for 6 h and stimulated with 0 and 10 nM insulin for either 5 or 15 min. Either Ad5-CAG-LoxP-stop-LoxP-3× Flag-SWELL1 or Ad5-CMV-Cre-wt-IRES-eGFP virus transduced cells alone were used as controls. Based on GFP fluorescence, viral transduction efficiency was ˜90%.
Electrophysiology Patch-clamp recordings of β-cells and mature adipocytes were performed as described previously (Zhang et al., Nat Cell Biol, 19, 504-517, 2017; Kang et al., Nature Communications, 9, 367, 2018). 3T3-F442A WT and KO preadipocytes were prepared as described in the Cell culture section above. […]

Data set [2] is described as follows: Glucose-stimulated insulin secretion (plasma insulin and islet perifusion). The settings on record: 21 weeks HFD mice.
Data set [3] is described as follows: Traced hyperinsulinemic euglycemic clamp in KKA^y mice.
The nature of data set [4]: NAFLD assessment: liver weight, histology, triglycerides, NAS in HFD mice. The conditions noted are these: HFD mice treated chronically and intermittently over 21 weeks. The method, then:
Liver isolation, triglycerides and histology HFD mice treated with either vehicle or Smod1 were anesthesized with […] followed by cervical dislocation. Gross liver weights were measured and identical sections from right medial lobe of liver were dissected for further examinations. Total triglyceride content was determined by homogenizing 10-50 mg of tissue in 1.5 ml of chloroform:methanol (2:1 v/v) and centrifuged at 12000 rpm for 10 mins at 4° C. An aliquot, 20 ul, was evaporated in a 1.5 ml microcentrifuge tube for 30 mins. Triglyceride content was determined by adding 100 μl of Infinity Triglyceride Reagent (Fisher Scientific) to the dried sample followed by 30 min incubation at RT. The samples were then transferred to a 96 well plate along with standards (0-2000 mg/dl) and absorbance was measured at 540 nm and the final concentration was determined by normalizing to tissue weight. For histological examination, liver sections were fixed in 10% zinc formalin and paraffin embedded for sectioning. Haematoxylin and eosin (H&E) stained sections were then assessed for steatosis grade, lobular inflammation and hepatocyte ballooning for non-alcoholic fatty liver disease (NAFLD) scoring as described (Kleiner et al., Hepatology, 41, 1313-1321, 2005; Liang et al., PLoS One, 9, e115922, 2014; Rauckhorst et al., Mol Metab, 6, 1468-1479, 2017).

The mark [5] stands for this setting: HFD-induced T2D mice and KKA^y model, 5 mg/kg i.p. 4-10 days.
[6] abbreviates: control KKA^a parental strain, 5 mg/kg x 4-10 days.

With `CCCCC1(C2CCCC2)Cc2cc(OCCCC(=O)O)c(Cl)c(Cl)c2C1=O` (centres unmarked) [Smod1, 4-[(2-Butyl-6,7-dichloro-2-cyclopentyl-2,3-dihydro-1-oxo-1H-inden-5-yl)oxy]butanoic acid], in data set [1] (HFD fed C57BL/6 mice, 5 mg/kg i.p., acute (FIG. 23)), the “random glucose 30 minutes after injection” value was “no evidence of exacerbated hyperglycemia”. In data set [1] (setting [5]), the “fasting glucose (FG)” value is given as “normalized”, the “glucose tolerance (GTT)” value is given as “normalized” and the “insulin-tolerance (ITT)” value is listed as “markedly improved”. Further, in data set [1] (setting [6]), the “glucose and insulin tolerance” value was “nor does it alter glucose and insulin tolerance”; the hypoglycemia entry is “does not cause hypoglycemia”. In data set [1] (lean, non-T2D, glucose-tolerant mice), the “FG, GTT and ITT compared to vehicle” value is recorded as “similar”. Further, the “FG, GTT and ITT” value in data set [1] (re-treated after 16 weeks of HFD feeding, HFD-induced T2D mice) is “marked improvements”. In addition, the “glucose-stimulated insulin secretion (GSIS), serum insulin and perifusion of isolated islets” value in data set [2] is given as “significantly improved”. Moreover, the “glucose-infusion rate (GIR) to maintain euglycemia” value in data set [3] (KKA^y mice, 5 mg/kg for 4 days) came out at 33.58 ± 3.4 mg/kg/min. The “reduction of hepatic glucose production (Ra)” value in data set [3] (KKA^y mice, baseline (basal)) is recorded as approximately 1.6 fold. Moreover, in data set [3] (KKA^y mice, during glucose/insulin infusion (clamp)), the “suppression of hepatic glucose production (Ra)” value turned out to be 4.8 fold. Moreover, the “enhancement of insulin stimulated 2-DG uptake” value in data set [3] (brown fat, skeletal muscle, KKA^y mice) is given as “not in brown fat, or skeletal muscle”. In data set [3] (inguinal white adipose tissue (iWAT), KKA^y mice), the “insulin stimulated 2-DG uptake” value came out at 7.0 ± 0.78 nmol/min/g. Besides, the glucose-incorporation into glycogen result in data set [3] (liver, adipose and skeletal muscle) is recorded as “markedly increased”. The “insulin stimulated 2-DG uptake” value in data set [3] (myocardium (Heart), KKA^y mice) was determined as 451.3 ± 24.63 nmol/min/g. Further, in data set [4], the “hepatic steatosis on histology” value is given as “marked reduction” and the liver triglycerides result is reported as “marked reduction”. For the same molecule, in data set [4] (5 mg/kg i.p.), the liver weights entry is listed as “marked reduction”. Moreover, the “NAFLD activity score (NAS)” value in data set [4] (vs vehicle) is “significantly improved”.
